# According to patent US20240140938A1, “PREPARATION OF TETRAHYDROINDAZOLE DERIVATIVES AS NOVEL DIACYLGLYCERIDE O-ACYLTRANSFERASE 2 INHIBITORS” (MERCK SHARP & DOHME LLC, priority 2020, published 2024):
# Molecular target: human DGAT2 (hDGAT2) (Homo sapiens (Human), UniProt Q96PD7)
# Assay: DGAT2 Enzymatic Activity Assay
# Type: biochemical
# Details: hDGAT2 Sf-9 membrane prep; 13C18-triolein product by LC/MS/MS; 25 μM diolein, 5 μM 13C oleoyl-CoA
# Description: Sf-9 insect cells were maintained in Grace's insect cell culture medium with 10% heated-inactivated fetal bovine serum, 1% Pluronic F-68 and 0.14 μg/ml Kanamycine sulfate at 27° C. in a shaker incubator. After infection with untagged baculovirus expressing human DGAT2 (hDGAT2) at multiplicity of infection (MOI) 3 for 48 hours, cells were harvested. Cell pellets were suspended in buffer containing 10 mM Tris-HCl pH 7.5, 1 mM EDTA, 250 mM sucrose and Complete Protease Inhibitor Cocktail (Sigma Aldrich), and sonicated on ice. Cell debris were removed by centrifugation at 2000×g for 15 minutes. Membrane fractions were isolated by ultracentrifugation (100,000×g), resuspended in the same buffer, and frozen (−80° C.) for later use. The protein concentration was determined with the Pierce™ BCA Protein Assay Kit (Thermo Fisher Scientific).
# LC/MS/MS analyses were performed using Thermal Fisher's LX4-TSQ Vantage system. This system consists of an Agilent binary high-performance liquid chromatography (HPLC) pump and a TSQ Vantage triple quadrupole MS/MS instrument. For each sample, 2 μL samples from the top organic layer of in-plate liquid-liquid extraction were injected onto a Thermo Betabasic C4 column (2.1 mm×20 mm, 5 μm particle size). The samples were then eluted using the following conditions; mobile phase: Isopropanol: acetonitrile/10 mM ammonium formate=50/35/15 (v/v/v), flow rate: 0.8 mL/min, temperature: 25° C. Data was acquired in positive mode using a heated electrospray ionization (HESI) interface. […] The peak area was integrated by Xcalibur Quan software. The ratio between the ^13C18triolein generated in the reaction and spiked in internal standard ^13C21-triolein was used to generate percentage inhibition and IC50 values. Compound percentage inhibition was calculated by the following formula: Inhibition %=1−[(compound response−low control)/(high control−low control)]×100%.
# DGAT2 activity was determined by measuring the amount of enzymatic product ^13C18-triolein (^13C-1,2,3-Tri(cis-9-octadecenoyl)glycerol) using the membrane prep mentioned above. The assay was carried out in ABgene 384-well assay plates in a final volume of 25 μL at rt.
# human DGAT2 (hDGAT2), sequence (Q96PD7 whole entry): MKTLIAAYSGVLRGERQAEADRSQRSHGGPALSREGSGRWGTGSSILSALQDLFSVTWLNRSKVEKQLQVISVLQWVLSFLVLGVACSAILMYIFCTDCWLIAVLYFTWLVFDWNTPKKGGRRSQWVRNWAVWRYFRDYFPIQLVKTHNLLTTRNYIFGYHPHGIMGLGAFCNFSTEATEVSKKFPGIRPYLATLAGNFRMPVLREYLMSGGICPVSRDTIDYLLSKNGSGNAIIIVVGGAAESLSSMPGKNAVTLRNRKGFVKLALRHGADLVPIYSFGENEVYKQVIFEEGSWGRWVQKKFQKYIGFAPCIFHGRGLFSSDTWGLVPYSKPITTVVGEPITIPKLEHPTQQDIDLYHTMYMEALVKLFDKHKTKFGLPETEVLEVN
row,IC50,SMILES
1,0.0601 µM,"CC(C)n1nc(-c2cc(OC(F)F)ccc2F)c2c1C[C@H](C(=O)N[C@]1(C)CCS(=O)(=O)C1)CC2 [Example 29, (R)-3-(5-(difluoromethoxy)-2-fluorophenyl)-1-isopropyl-N-((R)-3-methyl-1,1-dioxidotetrahydrothiophen-3-yl)-4,5,6,7-tetrahydro-1H-indazole-6-carboxamide]"
2,0.0055 µM,"CC(C)n1nc(-c2cc(OC(F)F)ccc2F)c2c1C[C@H](C(=O)NC1(C)CCS(=O)(=O)CC1)CC2 [Example 30, (R)-3-(5-(difluoromethoxy)-2-fluorophenyl)-1-isopropyl-N-(4-methyl-1,1-dioxidotetrahydro-2H-thiopyran-4-yl)-4,5,6,7-tetrahydro-1H-indazole-6-carboxamide]"
3,0.0247 µM,"CC(C)n1nc(-c2cccc(OC(F)F)c2)c2c1C[C@H](C(=O)NC1(C)CCS(=O)(=O)CC1)CC2 [Example 31, (R)-3-(3-(difluoromethoxy)phenyl)-1-isopropyl-N-(4-methyl-1,1-dioxidotetrahydro-2H-thiopyran-4-yl)-4,5,6,7-tetrahydro-1H-indazole-6-carboxamide]"
4,0.0291 µM,"CC(C)n1nc(-c2cccc(OC3CC3)c2)c2c1C[C@H](C(=O)NC1(C)CCS(=O)(=O)CC1)CC2 [Example 32, (R)-3-(3-cyclopropoxyphenyl)-1-isopropyl-N-(4-methyl-1,1-dioxidotetrahydro-2H-thiopyran-4-yl)-4,5,6,7-tetrahydro-1H-indazole-6-carboxamide]"
5,0.0033 µM,"CCOc1cccc(-c2nn(C(C)C)c3c2CC[C@@H](C(=O)NC2(C)CCS(=O)(=O)CC2)C3)c1 [Example 33, (R)-3-(3-ethoxyphenyl)-1-isopropyl-N-(4-methyl-1,1-dioxidotetrahydro-2H-thiopyran-4-yl)-4,5,6,7-tetrahydro-1H-indazole-6-carboxamide]"
6,0.117 µM,"CCOc1cc(-c2nn(C(C)C)c3c2CC[C@@H](C(=O)NC2(C)CS(=O)(=O)C2)C3)c(F)cn1 [Example 34, (R)-3-(2-ethoxy-5-fluoropyridin-4-yl)-1-isopropyl-N-(3-methyl-1,1-dioxidothietan-3-yl)-4,5,6,7-tetrahydro-1H-indazole-6-carboxamide]"
7,0.0352 µM,"CC(C)n1nc(-c2cccc(OCC(F)(F)F)c2)c2c1C[C@H](C(=O)N[C@@]1(C)CCS(=O)(=O)C1)CC2 [Example 35, (R)-1-isopropyl-N-((S)-3-methyl-1,1-dioxidotetrahydrothiophen-3-yl)-3-(3-(2,2,2-trifluoroethoxy)phenyl)-4,5,6,7-tetrahydro-1H-indazole-6-carboxamide]"
8,0.353 µM,"CC(C)n1nc(-c2cccc(OC(F)(F)C(F)F)c2)c2c1C[C@H](C(=O)NC1(C)CCS(=O)(=O)CC1)CC2 [Example 36, (R)-1-isopropyl-N-(4-methyl-1,1-dioxidotetrahydro-2H-thiopyran-4-yl)-3-(3-(1,1,2,2-tetrafluoroethoxy)phenyl)-4,5,6,7-tetrahydro-1H-indazole-6-carboxamide]"
9,0.0932 µM,"CC(C)n1nc(-c2cc(OC3CC3)ncc2F)c2c1C[C@H](C(=O)NC1(C)CCS(=O)(=O)CC1)CC2 [Example 37, (R)-3-(2-cyclopropoxy-5-fluoropyridin-4-yl)-1-isopropyl-N-(4-methyl-1,1-dioxidotetrahydro-2H-thiopyran-4-yl)-4,5,6,7-tetrahydro-1H-indazole-6-carboxamide]"
10,0.0743 µM,"CC(C)Oc1cc(-c2nn(C(C)C)c3c2CC[C@@H](C(=O)NC2(C)CCS(=O)(=O)CC2)C3)c(F)cn1 [Example 38, (R)-3-(5-fluoro-2-isopropoxypyridin-4-yl)-1-isopropyl-N-(4-methyl-1,1-dioxidotetrahydro-2H-thiopyran-4-yl)-4,5,6,7-tetrahydro-1H-indazole-6-carboxamide]"
11,0.0077 µM,"CCOc1cc(-c2nn(C(C)C)c3c2CC[C@@H](C(=O)NC2(C)CCS(=O)(=O)CC2)C3)c(Cl)cn1 [Example 39, (R)-3-(5-chloro-2-ethoxypyridin-4-yl)-1-isopropyl-N-(4-methyl-1,1-dioxidotetrahydro-2H-thiopyran-4-yl)-4,5,6,7-tetrahydro-1H-indazole-6-carboxamide]"
12,0.0046 µM,"CC(C)n1nc(-c2cc(OCC(F)F)ncc2F)c2c1C[C@H](C(=O)NC1(C)CCS(=O)(=O)CC1)CC2 [Example 40, (R)-3-(2-(2,2-difluoroethoxy)-5-fluoropyridin-4-yl)-1-isopropyl-N-(4-methyl-1,1-dioxidotetrahydro-2H-thiopyran-4-yl)-4,5,6,7-tetrahydro-1H-indazole-6-carboxamide]"
13,0.139 µM,"CC(C)n1nc(-c2cc(OC(F)F)ncc2F)c2c1C[C@H](C(=O)N[C@@]1(C)CCS(=O)(=O)C1)CC2 [Example 41, (R)-3-(2-(difluoromethoxy)-5-fluoropyridin-4-yl)-1-isopropyl-N-((S)-3-methyl-1,1-dioxidotetrahydrothiophen-3-yl)-4,5,6,7-tetrahydro-1H-indazole-6-carboxamide]"
14,0.296 µM,"CC(C)n1nc(-c2cc(OC(F)F)cnc2C(F)F)c2c1C[C@H](C(=O)NC1(C)CCS(=O)(=O)CC1)CC2 [Example 42, (R)-3-(5-(difluoromethoxy)-2-(difluoromethyl)pyridin-3-yl)-1-isopropyl-N-(4-methyl-1,1-dioxidotetrahydro-2H-thiopyran-4-yl)-4,5,6,7-tetrahydro-1H-indazole-6-carboxamide]"
15,0.0141 µM,"CC(C)n1nc(-c2cc(OCC(F)(F)F)ncc2F)c2c1C[C@H](C(=O)NC1(C)CS(=O)(=O)C1)CC2 [Example 43, (R)-3-(5-fluoro-2-(2,2,2-trifluoroethoxy)pyridin-4-yl)-1-isopropyl-N-(3-methyl-1,1-dioxidothietan-3-yl)-4,5,6,7-tetrahydro-1H-indazole-6-carboxamide]"
16,0.0053 µM,"CC(C)n1nc(-c2cc(OCC(F)(F)F)ncc2F)c2c1C[C@H](C(=O)N[C@@]1(C)CCS(=O)(=O)C1)CC2 [Example 44, (R)-3-(5-fluoro-2-(2,2,2-trifluoroethoxy)pyridin-4-yl)-1-isopropyl-N-((S)-3-methyl-1,1-dioxidotetrahydrothiophen-3-yl)-4,5,6,7-tetrahydro-1H-indazole-6-carboxamide]"
17,0.0184 µM,"CC(C)n1nc(-c2cc(OCC(F)(F)F)ncc2F)c2c1C[C@H](C(=O)NC1(C)CCS(=O)(=O)CC1)CC2 [Example 45, (R)-3-(5-fluoro-2-(2,2,2-trifluoroethoxy)pyridin-4-yl)-1-isopropyl-N-(4-methyl-1,1-dioxidotetrahydro-2H-thiopyran-4-yl)-4,5,6,7-tetrahydro-1H-indazole-6-carboxamide]"
18,0.0379 µM,"[2H]C([2H])([2H])C([2H])(n1nc(-c2cc(OC(F)F)ccc2F)c2c1C[C@H](C(=O)NC1(C)CCS(=O)(=O)CC1)CC2)C([2H])([2H])[2H] [Example 46, (R)-3-(5-(difluoromethoxy)-2-fluorophenyl)-N-(4-methyl-1,1-dioxidotetrahydro-2H-thiopyran-4-yl)-1-(propan-2-yl-d7)-4,5,6,7-tetrahydro-1H-indazole-6-carboxamide]"
19,0.0659 µM,"[2H]C([2H])([2H])C([2H])(n1nc(-c2cc(OCC)ncc2F)c2c1C[C@H](C(=O)NC1(C)CCS(=O)(=O)CC1)CC2)C([2H])([2H])[2H] [Example 47, (R)-3-(2-ethoxy-5-fluoropyridin-4-yl)-N-(4-methyl-1,1-dioxidotetrahydro-2H-thiopyran-4-yl)-1-(propan-2-yl-d7)-4,5,6,7-tetrahydro-1H-indazole-6-carboxamide]"
20,0.051 µM,"[2H]C([2H])([2H])C([2H])([2H])Oc1cc(-c2nn(C(C)C)c3c2CC[C@@H](C(=O)NC2(C)CCS(=O)(=O)CC2)C3)c(F)cn1 [Example 50, (R)-3-(2-(ethoxy-d5)-5-fluoropyridin-4-yl)-1-isopropyl-N-(4-methyl-1,1-dioxidotetrahydro-2H-thiopyran-4-yl)-4,5,6,7-tetrahydro-1H-indazole-6-carboxamide]"
21,0.0043 µM,"[2H]C([2H])([2H])C([2H])(n1nc(-c2cc(OC(F)F)ccc2F)c2c1C[C@H](C(=O)NC1(C#N)CCS(=O)(=O)CC1)CC2)C([2H])([2H])[2H] [Example 51, (R)-N-(4-cyano-1,1-dioxidotetrahydro-2H-thiopyran-4-yl)-3-(5-(difluoromethoxy)-2-fluorophenyl)-1-(propan-2-yl-d7)-4,5,6,7-tetrahydro-1H-indazole-6-carboxamide]"
22,0.0047 µM,"CC(C)n1nc(-c2cc(OC(F)F)ccc2F)c2c1C[C@H](C(=O)NC1(C#N)CCS(=O)(=O)CC1)CC2 [Example 52, (R)-N-(4-cyano-1,1-dioxidotetrahydro-2H-thiopyran-4-yl)-3-(5-(difluoromethoxy)-2-fluorophenyl)-1-isopropyl-4,5,6,7-tetrahydro-1H-indazole-6-carboxamide]"
